Where “and” joins values, the source holds several entries; their conditions need not be identical. Equal entries are not always repeated. Entries after “also recorded” stand apart in the source; their conditions may differ. Where two headings read alike, the source gives them in different places.
Experiments:
Format in all cases: physicochemical
[1] = Eluting test of the material from the material-containing film (ISO10993-10 Annex E, methanol extraction)
Experimental: In Example 1, the operation was performed in the same manner as in Example 1 except that 100 mg of the near infrared fluorescent material A was used, a material-containing TPU film having a thickness of about 300 μm and having a material concentration of the near infrared fluorescent material A of 0.1% by mass was prepared.
An Eluting test of the obtained material-containing TPU film was performed. The eluting operation of the film was performed as follows according to ISO10993-10AnnexE. 5 g of the material-containing TPU film was cut into a size of 2 cm×2 cm, and then was put into a 300 mL conical flask with 100 mL of methanol, followed by shaking at 25° C. of room temperature for 8 hours. Next, the methanol was separated by filtration once, and the resultant product was extracted two times with the same amount of methanol by using the same film fine piece. The methanol extracted liquid obtained by the total three times of operations was concentrated by an evaporator, and the residues were melted with 5 mL of dichloromethane to obtain a test liquid.
The absorption spectrum and the light emission spectrum of the obtained test liquid were measured. As a result, the absorption and the fluorescent derived from the near infrared fluorescent material A could not be confirmed. […] Since the near infrared fluorescent material A was hardly eluted, a medical implant having high safeness which is molded using the resin composition according to the present invention was obtained.

[2] = Absorption spectrum of material-containing resin film (spectrophotometer UV3600); details: PP film, material 10 mg per 100 g PP (Example 2)
[3] = as above
Experimental: TPU pellets (Tecoflex EG85A, manufactured by Lubrizol Corp.) (100 g) and a near infrared fluorescent material A (5 mg) synthesized in Preparation Example 1 were mixed, and the mixture was attached to the pellet surfaces.
Next, the pellets were put into Labo Plastomill, and melt-kneaded (kneading) at a set temperature of 190° C. for 10 minutes. Thereafter, the kneaded material-containing resin was taken out, and made to be a film.
The film was obtained in the following manner. First, the material-containing resin was heated for 5 minutes while being sandwiched between iron plates heated to 200° C., and pressed at […] while the steel plates were cooled. […]

[4] = Emission (fluorescence) spectrum and fluorescence quantum yield of material-containing resin film (Quantaurus-QY C11347)
[5] = TPU film, material 0.1% by mass, about 300 μm, methanol, 25° C., 8 hours, three extractions
[6] = methanol extract of TPU film, residues in dichloromethane
[7] = TPU film, material 5 mg per 100 g TPU (0.005% by mass), melt-kneaded at 190° C.
[8] = PP film, material 10 mg per 100 g PP (Example 2)

Presence or absence of material elution [1, 5]	SMILES	Presence or absence of material elution [1]	Absorption peak [3]	Fluorescence peak [4]	Quantum yield [4]	other results
eluted; also recorded: Presence	CCN1/C(=C\C=C2/CCC(/C=C/c3sc4ccc(Cl)cc4[n+]3CC)=C2N(c2ccccc2)c2ccccc2)Sc2ccc(Cl)cc21 [IR-140, reference compound]	–	–	–	–	Presence or absence of material elution ([1]; TPU film, material 0.1% by mass, about 300 μm, methanol, 25° C., 8 hours, three extractions, listed as Comparative Example 1): elutes; light emission peak wavelength of the fluorescence spectrum in the test liquid of the eluting test [1, 6]: 846 nm; peak wavelength of the absorption spectrum in the test liquid of the eluting test [1, 6]: 812 nm
hardly eluted; also recorded: Absence	COc1ccc(-c2cc3c(o2)=CC2=C(C(F)(F)F)c4cc5oc(-c6ccc(OC)cc6)cc5n4[B-](F)(F)[N+]=32)cc1 [near infrared fluorescent material A]	–	–	–	–	Absorption peak [2]: 730 nm; Absorption peak [3, 7]: 730 nm; Fluorescence peak [4, 8]: 810 nm; Quantum yield [4, 8]: 24%; Quantum yield [4, 7]: 26%
–	CCCCCCCCOc1ccc(-c2c3c4n(c(-c5ccc(OCCCCCCCC)cc5)c3c3n2[B-](F)(F)[n+]2c(sc5cc(C(C)(C)C)ccc52)C=3C#N)[B-](F)(F)[n+]2c(sc3cc(C(C)(C)C)ccc32)C=4C#N)cc1 [near infrared fluorescent material B]	not eluted; also recorded: Absence	739 nm and 738 nm and 737 nm and 736 nm	758 nm and 833 nm and 756 nm and 834 nm and 753 nm and 754 am nm and 751 nm and 825 nm	36% and 34% and 39% and 46%	–
–	COc1ccc(-c2cc3c(s2)=CC2=C(C(F)(F)F)c4cc5sc(-c6ccc(OC)cc6)cc5n4[B-](F)(F)[N+]=32)cc1 [near infrared fluorescent material D]	not eluted; also recorded: Absence	737 nm	765 nm	17%	–
not eluted; also recorded: Absence	F[B-]1(F)n2c(cc3sc(-c4cccs4)cc32)C(C(F)(F)F)=C2C=c3sc(-c4cccs4)cc3=[N+]21 [near infrared fluorescent material E]	–	–	–	–	Absorption peak [3, 7]: 741 nm; Fluorescence peak [4, 7]: 772 nm; Quantum yield [4, 7]: 11%
–	CCCCCCCCOc1ccc(-c2c3c4n(c(-c5ccc(OCCCCCCCC)cc5)c3c3n2[B-](F)(F)[n+]2c(ccc5cc(C(C)(C)C)ccc52)C=3C#N)[B-](F)(F)[n+]2c(ccc3cc(C(C)(C)C)ccc32)C=4C#N)cc1 [near infrared fluorescent material F]	not eluted; also recorded: Absence	764 nm and 767 nm	774 nm and 870 nm	35%	–
–	CCCCCCCCOc1ccc(-c2c3c4n(c(-c5ccc(OCCCCCCCC)cc5)c3c3n2[B-](c2ccccc2)(c2ccccc2)[n+]2c(C)cc(C)nc2C=3C#N)[B-](c2ccccc2)(c2ccccc2)[n+]2c(C)cc(C)nc2C=4C#N)cc1 [near infrared fluorescent material G]	not eluted; also recorded: Absence	756 nm	778 nm and 870 nm	35%	–
–	CCCCC(CC)COc1ccc(-c2c3c4n(c(-c5ccc(OCC(CC)CCCC)cc5)c3c3n2[B-](c2ccccc2)(c2ccccc2)[n+]2c(oc5ccc(C(C)(C)C)cc52)C=3C#N)[B-](c2ccccc2)(c2ccccc2)[n+]2c(oc3ccc(C(C)(C)C)cc32)C=4C#N)cc1 (stereo not shown) [near infrared fluorescent material H]	not eluted; also recorded: Absence	744 nm	787 nm and 865 nm	36%	–
